# Source: patent US20250115865A1, “MAMMALIAN SPERM PREPARATION METHOD, ARTIFICIAL INSEMINATION METHOD, IN-VITRO FERTILIZATION METHOD, AND MEDIUM” (Hiroshima University, priority 2022, published 2025)
# Experiments:
# pig sperm = test: Pig artificial insemination with treated semen, sex of offspring; assay type: in vivo; conditions: semen treated in modified HTF medium pH 7.8, R848 3 nM, 60 minutes, 37° C.
# Description: Pig semen diluted to 5 billion/100 mL with Hiro Swine B solution was centrifuged (500 G, 5 minutes, room temperature), and then the supernatant was discarded. The pig sperm were suspended in the same amount of modified HTF medium (pH 7.8, supplemented with R848 (3 nM)), and then cultured in a thermostat (60 minutes, 37° C.). Thereafter, centrifugation (500 G, 5 minutes, room temperature) was carried out, and the supernatant was discarded. Subsequently, the sperm were suspended in a diluent for artificial insemination, and then subjected to artificial insemination.
# mouse sperm [1] = test: Mouse in vitro fertilization with treated sperm, sex of blastocyst embryos by real-time PCR; assay type: cell-based; conditions: sperm treated with R848 3 nM
# Description: Sperm were collected from the cauda epididymis of 12-week-old mature male mice. The mouse sperm were cultured in modified HTF medium (Glu medium, pH 7.8, supplemented with R848 (3 nM)) (60 minutes, 37° C.). In vitro fertilization was performed using sperm cultured in the same manner as in Experiment 7. Five days later, sperm that reached blastocyst embryos were collected, and the ratio between X-sperm and Y-sperm was calculated by real-time PCR.
# mouse sperm [2] = test: Mouse artificial insemination with treated sperm, sex of blastocyst embryos; assay type: in vivo; conditions: sperm treated with R848 3 nM, Glu medium pH 7.8, 60 minutes, 5/6 embryos
# Description: Sperm were collected from the cauda epididymis of 12-week-old mature male mice. The mouse sperm were cultured in modified HTF medium (Glu medium, pH 7.8, supplemented with R848 (3 nM)) (60 minutes, 37° C.). Sperm cultured in the same manner as in Experiment 7 were subjected to artificial insemination, and the resulting blastocyst embryos were collected. As a result, 83.3% (5/6) of the embryos were female embryos.
# bovine sperm [3] = test: Acrosome retention rate of bovine sperm after culture and swim-up; assay type: cell-based; conditions: freeze-thawed bovine sperm, Glu medium pH 7.7, R848 3 nM, 30 minutes room temperature, swim-up from 1% PVP 15 minutes; FIG. 7
# Description: Freeze-thawed bovine sperm, thawed and washed in modified HTF medium, were cultured in modified HTF medium (Glu medium, pH 7.7, supplemented with R848 (3 nM)) (30 minutes, room temperature). Centrifugation was carried out, and then the supernatant was discarded. Subsequently, the sperm were resuspended in modified HTF medium supplemented with 1% PVP and R848 (3 nM), and then placed under PVP-free modified HTF medium to form a lower layer. Fifteen minutes later, 1.5 mL of the upper layer and 0.5 mL of the lower layer were collected. Each layer was subjected to acrosome staining, and the acrosome retention rate was determined.
# bovine sperm [4] = test: X-sperm/Y-sperm ratio of bovine lower-layer sperm by fluorescence in situ hybridization; assay type: cell-based; conditions: freeze-thawed bovine sperm, Glu medium pH 7.7, R848 3 nM, swim-up, FISH, FIG. 8
# bovine sperm [5] = test: Bovine in vitro fertilization with upper-layer sperm, sex identification of blastocyst embryos by real-time PCR; assay type: cell-based; conditions: modified HTF medium pH 7.4, R848 3 nM, 30 minutes room temperature, FIG. 9
# Description: Freeze-thawed bovine sperm, thawed and washed in modified HTF medium, were cultured in modified HTF medium (pH 7.4, supplemented with R848 (3 nM)) (30 minutes, room temperature). Centrifugation was carried out, and then the supernatant was discarded. Subsequently, the sperm were resuspended in modified HTF medium supplemented with 1% PVP and R848 (3 nM), and then placed under PVP-free modified HTF medium to form a lower layer. Fifteen minutes later, 1.5 mL of the upper layer was collected, washed, and then subjected to in vitro fertilization. Thereafter, the resulting blastocyst embryos were subjected to sex identification by real-time PCR.
# [6] = blastocyst embryos after five days, Glu medium pH 7.8, 22 individuals
smiles,measurement,setting,value
"CCOCc1nc2c(N)nc3ccccc3c2n1CC(C)(C)O [R848, resiquimod]",Female ratio,pig sperm,64%
same,Female (number of individuals),pig sperm; 36 individuals,23
same,Male (number of individuals),pig sperm; 36 individuals,13
same,Female (number of embryos),mouse sperm [1]; [6],17
same,Male (number of embryos),mouse sperm [1]; [6],5
same,Female ratio,"mouse sperm [1]; blastocyst embryos, Glu medium pH 7.8",77%
same,female embryos among blastocyst embryos,mouse sperm [2],83.3%
same,acrosome retention rate of the sperm in the upper layer,bovine sperm [3],70%
same,Y-sperm among the sperm in the lower layer,bovine sperm [4],84%
same,XX embryos (female embryos) among blastocyst embryos,bovine sperm [5],91%
